Data: patent publication US7635693B2, “Methods for preventing and treating cancer using N-thiolated β-lactam compounds and analogs thereof” (University of South Florida, priority 2002, dated 2009)
Read-outs that look alike come from different tables or passages of the source.

Columns and labels:
[1] = tested on: Jurkat T cells; details: 50 μM, cited from earlier work
[2] = tested on: PARP; details: YT cells
Protocol: Human Jurkat T cells and human prostate cancer LNCaP cells were cultured in RPMI 1640 medium, supplemented with 10% fetal bovine serum, 100 units/ml penicillin, and 100 μg/ml streptomycin. Human YT cells were cultured in RPMI 1640 medium supplemented with 1 mM MEM sodium pyruvate solution, 0.1 mM MEM non-essential amino acids solution, 10% fetal bovine serum, 100 units/ml penicillin, and 100 μg/ml streptomycin. All cell lines were maintained at 37° C. in a humidified incubator with an atmosphere of 5% CO2. […] Briefly, cells were harvested, washed with PBS and homogenized in a lysis buffer (50 mM Tris-HCl, pH 8.0, 5 mM EDTA, 150 mM NaCl, 0.5% NP-40, 0.5 mM phenylmethylsulfonyl fluoride, and 0.5 mM dithiothreitol) for 30 min at 4° C. Afterwards, the lysates were centrifuged at 12000×g for 15 min at 4° C. and the supernatants collected as whole-cell extracts. Equal amounts of protein extract (60 μg) were resolved by SDS-polyacrylamide gel electrophoresis and transferred to a nitrocellulose membrane (Schleicher & Schuell, Keene, N. H.) using a Semi-Dry Transfer System (Bio-Rad, Hercules, Calif.). The enhanced chemiluminescence Western blot analysis was then performed using specific antibodies to the proteins of interest.

[3] = tested on: Jurkat T cells; assay: TUNEL assay (DNA strand breaks), Jurkat T cells; type: cell-based, human; details: 50 μM
Protocol: Terminal deoxynucleotidyl transferase-mediated UTP nick end labeling (TUNEL) was performed to determine the extent of DNA strand breaks. TUNEL assay was performed with an APO-Direct kit per the manufacturer's instructions. In brief, cells are fixed in 1% paraformaldehyde and ethanol at […] overnight and then permeabilized with Proteinase K. After permeabilization, Fluorescein conjugated dNTP's and TdT enzyme (Terminal Deoxynucleotidyl Transferase) are added to the cells. The TdT enzyme is then able to label free ends of DNA with Fluorescein conjugated dNTPs that could then be detected by flow cytometry.
The assay was performed following manufacturer's instruction using the APO-Direct kit. In brief, the harvested cells were fixed in 1% paraformaldehyde for 15 min on ice, washed with PBS, and then fixed again in 70% ethanol at −20° C. overnight. The cells were then incubated in DNA labeling solution (containing terminal deoxynucleotidyl transferase (TdT) enzyme, fluorescein-conjugated dUTP and reaction buffer) for 90 min at 37° C. After removing the DNA labeling solution by rinsing cells with Rinsing Buffer, the cells were incubated with the Propidium Iodide/RNase A solution, incubated for 30 min at room temperature in the dark, and then analyzed by flow cytometry within 3 h of staining.

[4] = tested on: p38 MAP kinase; assay: p38 phosphorylation, Western blot, Jurkat T cells; type: cell-based, human
Description: It has been shown that multiple stimuli including DNA damaging agents induce apoptosis via activation of p38 MAP kinase (Kummer J L, et al., 1997, Apoptosis induced by withdrawal of trophic factors is mediated by p38 mitogen-activated protein kinase. J. Biol Chem 272:20490-4; Sanchez-Prieto R, et al., 2000, A role for the p38 mitogen-acitvated protein kinase pathway in the transcriptional activation of p53 on genotoxic stress by chemotherapeutic agents. Cancer Res 60:2464-72). […] The levels of Tyr-182 phosphorylated p38 protein were increased by 3-fold at 2 h and reached its maximum (˜9-fold) by 6 h (FIG. 8A). In has been shown that dual phosphorylation of p38 on Tyr-182 and Thr-180 activates this kinase (Raingeaud J, et al., 1995, Pro-inflammatory cytokines and environmental stress cause p38 mitogen-activated protein kinase activation by dual phosphorylation on tyrosine and threonine. J Biol Chem 270:7420-6). […] Therefore, lactam 1-induced DNA damage triggered activation of p38 before S population accumulation and apoptosis induction.

[5] = tested on: NK cells (YT line); details: YT cells, 30 μM, 24 h
Protocol: The trypan blue dye exclusion assay was performed by mixing 20 μl of cell suspension with 20 μl of 0.4% trypan blue dye before injecting into a hemocytometer and counting. The number of cells that absorbed the dye and those that exclude the dye were counted, from which the percentage of nonviable cell number to total cell number was calculated.

[6] = tested on: LNCaP cells; details: LNCaP cells in soft agar, 50 μM, 21 day-incubation
Protocol: The soft agar assay was performed as described previously (Menter D G, Sabichi A L, Lippman S M., 2000, Selenium effects on prostate cell growth. Cancer Epidemiol Biomarkers Prev 9:1171-82) with a few modifications. In brief, in a six-well plate, a bottom feeder layer (0.6% agar) was prepared with DMEM media containing 10% fetal bovine serum, 100 units/ml penicillin, and 100 μg/ml streptomycin. […] Plates were incubated at 37° C. in 5% CO2 in a humidified incubator for three weeks. MTT (1 mg/ml) was added to each well and incubated overnight to allow complete formation of purple formazan crystals. The plates were then scanned and photographed, and the number of colonies was quantified by Quantity one v.4.0.3 software (Bio-Rad, Hercules, Calif.).

[7] = tested on: MDA-MB-231 cells; details: MDA-MB-231, 50 μM, 48 hour
Protocol: (§1) To assay nuclear morphology, both the detached or remaining attached solid tumor cells were washed with PBS, fixed with 70% ethanol for 1 hour, and stained with Hoechst 33342 (50 μM) for 30 minutes. The nuclear morphology of cells was visualized by a fluorescence microscope.
(§2) Both attached and detached cell populations were then used for detection of apoptotic nuclear changes.

[8] = tested on: MCF-7 cells; details: MCF-7, 50 μM, 24 hour
Protocol: as §1, §2

[9] = tested on: PC-3 cells; details: PC-3, 50 μM, 48 hour
Protocol: as §1, §2

[10] = tested on: PCI-13 cells; details: PCI-13, 50 μM, 48 hour
Protocol: as §1, §2

## COC1C(=O)N(SC)C1c1ccccc1Cl (racemic) [lactam 1]
[1]; 12 h (Smith et al., 2002)
  sub-G1 population: 10%
[1]; 24 h (Smith et al., 2002)
  sub-G1 population: 16%
[2]; 30 μM, 3, 6, or 24 h
  PARP cleavage: no PARP cleavage was observed
[2]; at even 50 μM, 24 h
  PARP cleavage: no PARP cleavage was detectable
[3]; 1 hour
  DNA strand breaks (TUNEL): did not induce DNA strand breaks
[3]; 2 hour
  cell population positive for DNA strand breaks (TUNEL): more than half of the cell population
[3]; 24 h
  TUNEL-positive cells: 66%
[4]; 50 μM, 2 h
  increase of Tyr-182 phosphorylated p38 protein: 3 fold
[4]; 50 μM, 6 h
  increase of Tyr-182 phosphorylated p38 protein (maximum): ~9 fold
[4]; 50 μM, up to 12 hours
  levels of total p38 protein: remained relatively unchanged
[4]; FIG. 8D
  normalized increase in phosphorylation of p38 over control: 5.9 fold
[5]
  cell death (trypan blue): 9%
[6]
  inhibition of colony formation: 91%
[7]
  nuclear morphology of detached cells (Hoechst 33342): apoptosis-specific nuclear morphology
[8]
  cells detached: ~50%
  nuclear morphology of detached cells (Hoechst 33342): typical apoptotic nuclear condensation and fragmentation
[9]
  nuclear morphology of detached cells (Hoechst 33342): apoptosis-specific nuclear morphology
[10]
  nuclear morphology of detached cells (Hoechst 33342): apoptosis-specific nuclear morphology
